Data from ChEMBL document CHEMBL1201862, “PubChem BioAssay data set” (2004).
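Protocol summary: plate cells (96-well), add compound at 5 concentrations, incubate 48 h, interpolate endpoints linearly. Here, GI50 denotes the concentration required for 50% inhibition of growth.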 Calls of active or inactive are those of the source. Rule as the data show it: active = GI50 up to about 1.1 µM and inactive = higher.

What was measured:
Test in all cases: DTP human tumour cell line panel, 48 h
SW-620 = system: SW-620
PC-3 = system: PC-3
MOLT-4 = system: MOLT-4
786-0 = system: 786-0
OVCAR-5 = system: OVCAR-5
SK-OV-3 = system: SK-OV-3
MDA-MB-231 = system: MDA-MB-231
NCI-H522 = system: NCI-H522
HCC 2998 = system: HCC 2998
A549 = system: A549
UACC-257 = system: UACC-257
CAKI-1 = system: CAKI-1
UACC-62 = system: UACC-62
SK-MEL-28 = system: SK-MEL-28
DU-145 = system: DU-145
K562 = system: K562
RPMI-8226 = system: RPMI-8226
BT-549 = system: BT-549
HT-29 = system: HT-29
UO-31 = system: UO-31

SMILES	GI50 (SW-620)	GI50 (PC-3)	GI50 (MOLT-4)	GI50 (786-0)	GI50 (OVCAR-5)	GI50 (SK-OV-3)	GI50 (MDA-MB-231)	GI50 (NCI-H522)	GI50 (HCC 2998)	GI50 (A549)	GI50 (UACC-257)	GI50 (CAKI-1)	GI50 (UACC-62)	GI50 (SK-MEL-28)	GI50 (DU-145)	GI50 (K562)	GI50 (RPMI-8226)	GI50 (BT-549)	GI50 (HT-29)	GI50 (UO-31)
CCCCC1NC=Nc2c1ccc1c2[nH]c2ccccc21 (stereo not given)	1.95 µM (inactive)	1.69 µM (inactive)	2.05 µM (inactive)	1.79 µM (inactive)	4.63 µM (inactive)	5.87 µM (inactive)	1.73 µM (inactive)	1.84 µM (inactive)	1.71 µM (inactive)	2.3 µM (inactive)	1.75 µM (inactive)	3.77 µM (inactive)	4.27 µM (inactive)	10.3 µM (inactive)	2.6 µM (inactive)	1.87 µM (inactive)	1.84 µM (inactive)	2.02 µM (inactive)	1.86 µM (inactive)	10.3 µM (inactive)
COC(=O)C1CCC(=O)N1C(c1ccc2c(c1)OCO2)c1ccc2c(c1)OCO2 (stereo not given)	> 100 µM (inactive)	> 100 µM (inactive)	> 100 µM (inactive)	> 100 µM (inactive)	> 100 µM (inactive)	> 100 µM (inactive)	> 100 µM (inactive)	> 100 µM (inactive)	> 100 µM (inactive)	> 100 µM (inactive)	> 100 µM (inactive)	> 100 µM (inactive)	> 100 µM (inactive)	> 100 µM (inactive)	> 100 µM (inactive)	> 100 µM (inactive)	> 100 µM (inactive)	> 100 µM (inactive)	> 100 µM (inactive)	51.9 µM (inactive)
NC(=O)C1=C(O)C[C@@H]2CC3Cc4cccc(O)c4C(=O)C3=C(O)[C@]2(O)C1=O (stereo not given in full)	3.57 µM (inactive)	1.8 µM (inactive)	1.61 µM (inactive)	3.24 µM (inactive)	0.449 µM (active)	3.69 µM (inactive)	2.78 µM (inactive)	1.89 µM (inactive)	3.1 µM (inactive)	0.592 µM (active)	3.07 µM (inactive)	10.6 µM (inactive)	2.15 µM (inactive)	4 µM (inactive)	3.16 µM (inactive)	1.81 µM (inactive)	0.755 µM (active)	1.87 µM (inactive)	0.339 µM (active)	2.9 µM (inactive)
O=C(O)CCCSc1ccccc1	> 100 µM (inactive)	> 100 µM (inactive)	> 100 µM (inactive)	> 100 µM (inactive)	> 100 µM (inactive)	> 100 µM (inactive)	> 100 µM (inactive)	> 100 µM (inactive)	> 100 µM (inactive)	> 100 µM (inactive)	> 100 µM (inactive)	> 100 µM (inactive)	> 100 µM (inactive)	> 100 µM (inactive)	> 100 µM (inactive)	> 100 µM (inactive)	> 100 µM (inactive)	> 100 µM (inactive)	> 100 µM (inactive)	> 100 µM (inactive)
COc1cc2nc(-c3cccs3)nc(N3CCN(c4ccccc4C(F)(F)F)CC3)c2cc1OC	> 100 µM (inactive)	79.3 µM (inactive)	16.7 µM (inactive)	> 100 µM (inactive)	> 100 µM (inactive)	> 100 µM (inactive)	> 100 µM (inactive)	90.4 µM (inactive)	> 100 µM (inactive)	> 100 µM (inactive)	> 100 µM (inactive)	25.2 µM (inactive)	76.7 µM (inactive)	> 100 µM (inactive)	> 100 µM (inactive)	83.6 µM (inactive)	51.3 µM (inactive)	> 100 µM (inactive)	> 100 µM (inactive)	> 100 µM (inactive)
Nc1ccc(-c2nc3ccccc3s2)cc1I	> 92.7 µM (inactive)	41.5 µM (inactive)	28.4 µM (inactive)	43.9 µM (inactive)	0.0817 µM (active)	> 65.6 µM (inactive)	> 69.7 µM (inactive)	31.1 µM (inactive)	5.06 µM (inactive)	> 78 µM (inactive)	> 100 µM (inactive)	> 100 µM (inactive)	> 73.6 µM (inactive)	> 100 µM (inactive)	> 100 µM (inactive)	39.2 µM (inactive)	> 84.1 µM (inactive)	> 78 µM (inactive)	66.2 µM (inactive)	14.2 µM (inactive)
